Results taken from patent US20250268854A1, “2-AMINO-5,5-DIMETHYLHEXANOIC ACID DERIVATIVES AS SORTILIN MODULATORS FOR USE IN THE TREATMENT OF DISEASE OF THE CENTRAL NERVOUS SYSTEM” (c/o Vesper Bio ApS, priority 2021, published 2025).
Where a name gives a salt, the structure may show the parent alone.

Tests used:
[1] = biological target: human Sortilin (Homo sapiens (Human), UniProt Q99523); experiment: Creoptix (GCI) binding kinetics, human Sortilin; conditions: screened at 1 μM
Protocol: A protein, bound to a surface, is bathed in a solution containing potential ligands giving rise to binding kinetics to generate Kon and Koff rates, as well as a Kd.
All buffers described were filtered using a 0.2 μm filter (Product number: 10300461, Nalgene) and degassed for 15 minutes prior to use.
A flow cell temperature of 25 degrees Celsius was used throughout the experiment.
A 4PCH chip was conditioned across all flow cells using 0.2× concentration running buffer (running buffer composition: 1×HBS-N, pH 7.4, 3.4 mM EDTA, 1% DMSO) using pre-set conditioning wizard (WAVE control software) injecting: 0.1 M borate, 1 M NaCl (pH 9) followed by three start-up injections of 0.2× running buffer.
A buffer exchange was performed and 1× running buffer (1×HBS-N, pH 7.4, 3.4 mM EDTA, 1% DMSO) used during the immobilisation procedure:
An initial injection of EDC/NHS (mixed in 1:1 ratio) was performed across all 4-flow cells to activate the surface for amine coupling of ligands.
Recombinant Sortilin aliquots were thawed quickly by hand and centrifuged at 13,300 rpm for 10 minutes. A 10 μg/ml protein solution was then made in pH 5.0 acetate and injected once for 20 minutes over flow-cells 2, 3 and 4 for human, human (flow cells 2 & 3), and mouse Sortilin respectively followed by a 60 second dissociation period.
A final 7-minute passivation injection of 50 mM tris was used across all flow cells.
A flow rate of 10 μl/min was used for all conditioning and immobilisation cycles.
Compounds were screened at 1 μM using the in-built ‘intermediate binders’ settings: 100 ul/min, 45 s baseline, 25 s association, 300 s dissociation, with blanks every 5th sample and a DMSO correction (1.5% DMSO at the start and end of the experiment as well as every 20 cycles. An acquisition rate of 10 Hz was used throughout the experiment.
Compounds were screened at a final assay concentration of 1 μM and a final DMSO concentration was 1%. To achieve this, compounds were diluted in DMSO from 10 mM stocks to 100 μM (100×final assay concentration) then diluted 1:100 in running buffer which contained no DMSO to establish a final assay concentration of compound of 1 μM and a final DMSO concentration of 1% [DMSO].
Compounds and DMSO were mixed by plate shaking at 1000 rpm for 60 seconds using a Bioshake instrument.
A flow rate of 100 μl/min was used throughout the experiment.
Data was evaluated using the RAPID kinetic analysis tool in the GCI WAVE_control software with data fitted using a standard 1:1 kinetic BioModel.

[2] = biological target: h-Sortilin (Homo sapiens (Human), UniProt Q99523); experiment: Neurotensin (NTS) scintillation proximity assay (SPA): displacement of [3H]-neurotensin binding; conditions: 150 nM 6his-Sortilin, 5 nM [3H]-Neurotensin, average of at least 2 determinations
Protocol: The exemplified compounds of the invention were tested in a Neurotensin (NTS) scintillation proximity assay (SPA). NTS, which is a 13 amino acid neuropeptide, is a sortilin ligand. The IC50 is a measure of the amount of the compound required to inhibit the binding of NTS to sortilin by 50%. […] Compound affinity was determined by measuring the displacement of [^3H]-neurotensin binding to h-Sortilin in SPA format. […] IC50 values were calculated by nonlinear regression using the sigmoid concentration-response (variable slope) using CDD Vault software. All values reported are average of at least 2 determinations.

Sequence of human Sortilin (Q99523 78-755): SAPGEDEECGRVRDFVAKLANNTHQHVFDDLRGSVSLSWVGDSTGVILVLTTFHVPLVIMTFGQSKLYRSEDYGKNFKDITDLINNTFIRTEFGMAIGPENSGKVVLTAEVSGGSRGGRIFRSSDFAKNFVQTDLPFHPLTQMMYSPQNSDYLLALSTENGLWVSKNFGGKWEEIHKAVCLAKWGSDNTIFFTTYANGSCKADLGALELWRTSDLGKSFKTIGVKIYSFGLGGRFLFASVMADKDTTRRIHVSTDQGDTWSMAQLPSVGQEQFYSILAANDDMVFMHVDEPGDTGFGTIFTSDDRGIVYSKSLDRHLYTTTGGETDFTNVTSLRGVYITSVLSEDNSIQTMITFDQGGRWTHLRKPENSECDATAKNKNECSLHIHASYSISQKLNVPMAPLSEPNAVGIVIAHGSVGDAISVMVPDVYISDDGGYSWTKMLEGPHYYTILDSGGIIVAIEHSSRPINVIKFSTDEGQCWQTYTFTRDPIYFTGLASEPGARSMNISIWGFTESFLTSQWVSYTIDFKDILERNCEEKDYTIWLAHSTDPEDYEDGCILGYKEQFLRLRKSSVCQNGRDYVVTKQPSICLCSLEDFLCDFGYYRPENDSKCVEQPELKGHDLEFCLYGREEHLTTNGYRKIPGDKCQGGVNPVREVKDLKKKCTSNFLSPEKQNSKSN
Sequence of h-Sortilin (Q99523 78-831): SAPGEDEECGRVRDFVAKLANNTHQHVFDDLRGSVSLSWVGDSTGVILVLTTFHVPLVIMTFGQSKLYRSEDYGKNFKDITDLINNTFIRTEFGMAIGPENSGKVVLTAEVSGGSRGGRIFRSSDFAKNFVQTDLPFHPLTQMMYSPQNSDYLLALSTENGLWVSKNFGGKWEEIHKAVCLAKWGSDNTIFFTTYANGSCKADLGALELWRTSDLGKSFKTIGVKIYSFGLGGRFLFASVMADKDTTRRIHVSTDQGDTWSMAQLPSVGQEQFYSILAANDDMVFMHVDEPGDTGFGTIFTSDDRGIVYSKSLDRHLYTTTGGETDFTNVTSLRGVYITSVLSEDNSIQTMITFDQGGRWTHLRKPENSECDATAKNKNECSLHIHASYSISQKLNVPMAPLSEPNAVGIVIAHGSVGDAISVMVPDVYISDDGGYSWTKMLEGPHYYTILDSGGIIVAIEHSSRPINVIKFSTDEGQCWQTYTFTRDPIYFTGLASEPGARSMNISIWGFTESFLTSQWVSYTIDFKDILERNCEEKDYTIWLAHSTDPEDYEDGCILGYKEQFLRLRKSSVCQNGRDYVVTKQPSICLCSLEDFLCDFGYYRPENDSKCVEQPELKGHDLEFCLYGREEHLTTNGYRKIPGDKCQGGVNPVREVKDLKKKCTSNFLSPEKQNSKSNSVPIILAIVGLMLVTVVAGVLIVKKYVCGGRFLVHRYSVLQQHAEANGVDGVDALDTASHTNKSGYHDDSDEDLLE

| IC50 [2] [µM] | Kd ([1]; Free acid) [µM] | SMILES | Kd ([1]; HCl salt) [µM] | IC50 ([2]; HCl) [µM] |
| --- | --- | --- | --- | --- |
| 0.27 | 0.284 | COc1cccc([C@H](N[C@@H](CCC(C)(C)C)C(=O)O)C(F)F)c1 [Example 21, (2S)-2-{[(1S)-2,2-difluoro-1-(3-methoxyphenyl)ethyl]amino}-5,5-dimethylhexanoic acid] | – | – |
| 0.26 | 5.96 | COc1cccc([C@@H](N[C@@H](CCC(C)(C)C)C(=O)O)C(F)F)c1 [Example 22, (2S)-2-{[(1R)-2,2-difluoro-1-(3-methoxyphenyl)ethyl]amino}-5,5-dimethylhexanoic acid] | – | – |
| 0.39 | 4.02 | COc1cccc([C@@H](N[C@@H](CCC(C)(C)C)C(=O)O)C(F)(F)F)c1 [Example 23, (2S)-5,5-dimethyl-2-{[(1R)-2,2,2-trifluoro-1-(3-methoxyphenyl)ethyl]amino}hexanoic acid] | – | – |
| – | 0.23 | COc1cccc([C@H](N[C@@H](CCC(C)(C)C)C(=O)O)C(F)(F)F)c1 [Example 24, (2S)-5,5-dimethyl-2-{[(1S)-2,2,2-trifluoro-1-(3-methoxyphenyl)ethyl]amino}hexanoic acid] | – | – |
| 0.55 | 0.571 | COc1cc(F)cc(CN[C@@H](CCC(C)(C)C)C(=O)O)c1 [Example 29, (2S)-2-{[(3-fluoro-5-methoxyphenyl)methyl]amino}-5,5-dimethylhexanoic acid] | – | – |
| 1.36 | 0.747 | COc1ccc(CN[C@@H](CCC(C)(C)C)C(=O)O)cc1OC [Example 38, (2S)-2-{[(3,4-dimethoxyphenyl)methyl]amino}-5,5-dimethylhexanoic acid] | – | – |
| 0.47 | 0.101 | CC(C)(C)CC[C@H](NCc1ccc2c(c1)CCCO2)C(=O)O [Example 40, (2S)-2-{[(3,4-dihydro-2H-1-benzopyran-6-yl)methyl]amino}-5,5-dimethylhexanoic acid] | – | – |
| 0.33 | 5.96 | CC(C)(C)CC[C@H](NCc1ccc2c(c1)OCCO2)C(=O)O [Example 41, (2S)-2-{[(2,3-dihydro-1,4-benzodioxin-6-yl)methyl]amino}-5,5-dimethylhexanoic acid] | – | – |
| 1.39 | 2.76 | COc1cc(C)cc(CN[C@@H](CCC(C)(C)C)C(=O)O)c1 [Example 69, (2S)-2-{[(3-methoxy-5-methylphenyl)methyl]amino}-5,5-dimethylhexanoic acid] | – | – |
| 0.95 | 3.39 | COc1cc(CN[C@@H](CCC(C)(C)C)C(=O)O)ccc1F [Example 74, (2S)-2-{[(4-fluoro-3-methoxyphenyl)methyl]amino}-5,5-dimethylhexanoic acid] | – | – |
| 0.39 | – | COc1ccc(CN[C@@H](CCC(C)(C)C)C(=O)O)cc1O [Example 91, (2S)-2-{[(3-hydroxy-4-methoxyphenyl)methyl]amino}-5,5-dimethylhexanoic acid] | – | – |
| 1.63 | – | Cc1cnccc1CN[C@@H](CCC(C)(C)C)C(=O)O [Example 93] | – | – |
| 0.69 | – | Cc1cncc(CN[C@@H](CCC(C)(C)C)C(=O)O)c1 [Example 95] | – | – |
| 0.28 | 0.277 | COc1ccc([C@H](C)N[C@@H](CCC(C)(C)C)C(=O)O)cc1C [Example 101] | – | – |
| 0.37 | – | COc1ccc([C@H](C)N[C@@H](CCC(C)(C)C)C(=O)O)cc1OC [Example 108, (S)-2-(((S)-1-(3,4-dimethoxyphenyl)ethyl)amino)-5,5-dimethylhexanoic acid] | – | – |
| 0.43 | – | CC(C)(C)CC[C@H](NCc1ccc2occc2c1)C(=O)O [Example 117, (2S)-2-{[(1-benzofuran-5-yl)methyl]amino}-5,5-dimethylhexanoic acid] | – | – |
| 0.82 | – | COc1ccc(CN[C@@H](CCC(C)(C)C)C(=O)O)cc1 [Example 133, (2S)-2-{[(4-methoxyphenyl)methyl]amino}-5,5-dimethylhexanoic acid] | – | – |
| 1.32 | – | CC(C)(C)CC[C@H](NCc1cccc2[nH]ncc12)C(=O)O [Example 134, (2S)-2-{[(2H-indazol-4-yl)methyl]amino}-5,5-dimethylhexanoic acid] | – | – |
| 0.42 | – | CCn1ccc2c(CN[C@@H](CCC(C)(C)C)C(=O)O)cccc21 [Example 135, (2S)-2-{[(1-ethyl-1H-indol-4-yl)methyl]amino}-5,5-dimethylhexanoic acid] | – | – |
| 0.57 | – | CC(=O)c1cccc(CN[C@@H](CCC(C)(C)C)C(=O)O)c1 [Example 139, (2S)-2-{[(3-acetylphenyl)methyl]amino}-5,5-dimethylhexanoic acid] | – | – |

The next lines start with the compound.

| SMILES | IC50 [2] [µM] | Kd ([1]; Free acid) [µM] | Kd ([1]; HCl salt) [µM] | IC50 ([2]; HCl) [µM] |
| --- | --- | --- | --- | --- |
| CC(C)(C)CC[C@H](NCc1ccccc1)C(=O)O [Example 3, (S)-2-(benzylamino)-5,5-dimethylhexanoic acid hydrochloride] | 0.766 | – | 0.902 | – |
| COc1ccccc1CN[C@@H](CCC(C)(C)C)C(=O)O [Example 9, (S)-2-((2-methoxybenzyl)amino)-5,5-dimethylhexanoic acid hydrochloride] | 0.63 | – | 8.45 | – |
| COc1ccc(OC)c(CN[C@@H](CCC(C)(C)C)C(=O)O)c1 [Example 28, (2S)-2-{[(2,5-dimethoxyphenyl)methyl]amino}-5,5-dimethylhexanoic acid] | 2.22 | 1.02 | – | – |
| COc1cc(Cl)cc(CN[C@@H](CCC(C)(C)C)C(=O)O)c1 [Example 30, (2S)-2-{[(3-chloro-5-methoxyphenyl)methyl]amino}-5,5-dimethylhexanoic acid] | 0.58 | 0.45 | – | – |
| COc1cc(Br)cc(CN[C@@H](CCC(C)(C)C)C(=O)O)c1 [Example 31, (2S)-2-{[(3-bromo-5-methoxyphenyl)methyl]amino}-5,5-dimethylhexanoic acid] | 0.52 | 0.432 | – | – |
| COc1cc(CN[C@@H](CCC(C)(C)C)C(=O)O)ccc1C [Example 33, (2S)-2-{[(3-methoxy-4-methylphenyl)methyl]amino}-5,5-dimethylhexanoic acid] | 0.4 | 0.242 | – | – |
| CC(C)(C)CC[C@H](NCc1cccc2c1OCO2)C(=O)O [Example 45, (2S)-2-{[(2H-1,3-benzodioxol-4-yl)methyl]amino}-5,5-dimethylhexanoic acid] | 1.06 | 0.285 | – | – |
| CC(C)(C)CC[C@H](NCc1cncnc1)C(=O)O [Example 55, (2S)-5,5-dimethyl-2-{[(pyrimidin-5-yl)methyl]amino}hexanoic acid] | 0.41 | 1.98 | – | – |
| COc1cccc(CN[C@@H](CCC(C)(C)C)C(=O)O)c1C [Example 75, (2S)-2-{[(3-methoxy-2-methylphenyl)methyl]amino}-5,5-dimethylhexanoic acid] | 0.98 | 0.443 | – | – |
| Cc1nc2cc(CN[C@@H](CCC(C)(C)C)C(=O)O)ccc2s1 [Example 100, (2S)-5,5-dimethyl-2-{[(2-methyl-1,3-benzothiazol-5-yl)methyl]amino}hexanoic acid] | 0.38 | – | – | – |
| Cn1ccc2cc(CN[C@@H](CCC(C)(C)C)C(=O)O)cnc21 [Example 106, (2S)-5,5-dimethyl-2-[({1-methyl-1H-pyrrolo[2,3-b]pyridin-5-yl}methyl)amino]hexanoic acid] | 0.59 | – | – | – |
| Cn1cnc2cc(CN[C@@H](CCC(C)(C)C)C(=O)O)ccc21 [Example 110, (2S)-5,5-dimethyl-2-{[(1-methyl-1H-1,3-benzodiazol-5-yl)methyl]amino}hexanoic acid] | 0.46 | – | – | – |
| Cc1cc(CN[C@@H](CCC(C)(C)C)C(=O)O)ccn1 [Example 132] | 0.88 | – | – | – |
| Cn1cnc2c(CN[C@@H](CCC(C)(C)C)C(=O)O)cccc21 [Example 138, (S)-5,5-dimethyl-2-(((1-methyl-1H-benzo[d]imidazol-4-yl)methyl)amino)hexanoic acid, Mesylic acid] | 0.74 | – | – | – |
| CC(N[C@@H](CCC(C)(C)C)C(=O)O)c1cncnc1 (stereo partly drawn) [Example 141, (2S)-5,5-dimethyl-2-((1-(pyrimidin-5-yl)ethyl)amino)hexanoic acid, HCl] | – | – | – | 0.64 |
| CC(N[C@@H](CCC(C)(C)C)C(=O)O)c1cncnc1 (stereo partly drawn) [Example 143, (2S)-5,5-dimethyl-2-((1-(pyrimidin-5-yl)ethyl)amino)hexanoic acid, HCl] | – | – | – | 0.89 |
